Measurements published in patent EP4656642A1, “ESTROGEN RECEPTOR PROTEOLYSIS TARGETING CHIMERA COMPOUND AND USE THEREOF” (GAN & LEE PHARM CO., LTD, priority 2023, dated 2024).

Legend:
Format in all cases: cell-based
ERα [1] = molecular target: T1, ERα (Homo sapiens, UniProt P03372); assay: Degradation of ERα in MCF-7 cells (immunoblotting, 4 h)
T1 sequence (P03372 1-595): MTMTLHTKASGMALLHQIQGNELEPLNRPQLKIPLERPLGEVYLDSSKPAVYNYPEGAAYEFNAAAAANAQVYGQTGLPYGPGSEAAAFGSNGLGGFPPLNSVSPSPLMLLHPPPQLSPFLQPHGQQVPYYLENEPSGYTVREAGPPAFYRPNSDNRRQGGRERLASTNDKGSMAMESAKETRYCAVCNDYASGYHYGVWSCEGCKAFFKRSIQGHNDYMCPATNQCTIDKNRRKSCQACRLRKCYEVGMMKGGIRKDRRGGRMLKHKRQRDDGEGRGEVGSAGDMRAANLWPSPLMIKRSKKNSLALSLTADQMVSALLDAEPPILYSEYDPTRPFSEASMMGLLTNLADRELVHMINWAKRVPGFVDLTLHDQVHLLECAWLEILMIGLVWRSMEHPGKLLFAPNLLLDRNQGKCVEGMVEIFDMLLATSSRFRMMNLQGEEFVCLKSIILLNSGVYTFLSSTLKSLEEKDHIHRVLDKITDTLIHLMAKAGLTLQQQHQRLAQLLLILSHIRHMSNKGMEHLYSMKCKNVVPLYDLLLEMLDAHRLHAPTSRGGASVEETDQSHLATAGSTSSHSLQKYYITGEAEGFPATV
In short: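 Degradation rate reflects ERα band intensity, corrected to an internal reference protein, relative to control. Values come from Western blotting of lysates from MCF-7 cells exposed 4 h at 37°C to compounds at final concentrations of 0.15-1000nM.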

MCF-7 cells = assay: Inhibition of cell proliferation of MCF-7 cells (CCK-8, 9 days); details: treated for 9 days, CCK-8 kit (Table 6)
In short: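 Read-out was CCK-8 viability after 9-day continuous exposure (37°C, 5% CO2) of MCF-7 cells plated at 800/well in 10% FBS DMEM across several compound concentrations. Values are proliferation IC50s.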

ERα [2] = molecular target: T1, ERα; assay: Degradation of ERα in T-47D cells (immunoblotting, 4 h); design: host or cells: T-47D
In short: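 ERα protein levels were assessed by immunoblot of RIPA lysates (with protease inhibitor) after 4 h exposure at 37°C. Compound was added in DMSO to T-47D cells at final concentrations of 0.15-1000 nM.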

SMILES: C[C@@H]1Cc2cc(O)ccc2C(c2c(F)cc(N3CCN(C[C@H]4CC[C@H](C(=O)N5CCC6(CC5)COc5c6ccc6c5CN(C5CCC(=O)NC5=O)C6=O)CC4)CC3)cc2F)N1CC(F)F (some centres unmarked) [I6]
- Degradation rate (%) of ERα in MCF-7 cells (ERα [1]; 1nM compound): 57%
- Degradation rate (%) of ERα in MCF-7 cells (ERα [1]; 10nM compound): 45%
- IC50 (MCF-7 cells): 6.57 nM
- Degradation rate (%) of ERα in T-47D cells (ERα [2]; 1nM compound): 56%
- Degradation rate (%) of ERα in T-47D cells (ERα [2]; 10nM compound): 65%

SMILES: O=C1CCC(N2Cc3c(ccc4c3OCC43CCN(C(=O)CN4CCC5(CC4)CN(c4ccc([C@@H]6c7ccc(O)cc7CC[C@@H]6c6ccccc6)cc4)C5)CC3)C2=O)C(=O)N1 (some centres unmarked) [B17]
- Degradation rate (%) of ERα in MCF-7 cells (ERα [1]; 1nM compound): 37%
- Degradation rate (%) of ERα in MCF-7 cells (ERα [1]; 10nM compound): 61%
- IC50 (MCF-7 cells): 16.6 nM
- Degradation rate (%) of ERα in T-47D cells (ERα [2]; 1nM compound): 52%
- Degradation rate (%) of ERα in T-47D cells (ERα [2]; 10nM compound): 76%

SMILES: O=C1CCC(N2Cc3c(ccc4c3OCC43CCN(C(=O)C4CCN(CC5CCN(c6ccc([C@@H]7c8ccc(O)cc8CC[C@@H]7c7ccccc7)cc6)CC5)CC4)CC3)C2=O)C(=O)N1 (some centres unmarked) [J8]
- Degradation rate (%) of ERα in MCF-7 cells (ERα [1]; 1nM compound): 78%
- Degradation rate (%) of ERα in MCF-7 cells (ERα [1]; 10nM compound): 85%
- IC50 (MCF-7 cells): 4.89 nM
- Degradation rate (%) of ERα in T-47D cells (ERα [2]; 1nM compound): 79%
- Degradation rate (%) of ERα in T-47D cells (ERα [2]; 10nM compound): 81%

SMILES: CN(C(=O)CN1CCC2(CC1)COc1c2ccc2c1CN(C1CCC(=O)NC1=O)C2=O)C1CCC2(CC1)CN(c1ccc([C@@H]3c4ccc(O)cc4CC[C@@H]3c3ccccc3)cc1)C2 (some centres unmarked) [H49]
- Degradation rate (%) of ERα in MCF-7 cells (ERα [1]; 1nM compound): 50%
- Degradation rate (%) of ERα in MCF-7 cells (ERα [1]; 10nM compound): 71%
- IC50 (MCF-7 cells): 5.08 nM
- Degradation rate (%) of ERα in T-47D cells (ERα [2]; 1nM compound): 48%
- Degradation rate (%) of ERα in T-47D cells (ERα [2]; 10nM compound): 77%

SMILES: O=C1CCC(N2Cc3c(ccc4c3OCC43CCN(CCNC(=O)C4CCC5(CC4)CCN(c4ccc([C@@H]6c7ccc(O)cc7CC[C@@H]6c6ccccc6)cc4)CC5)CC3)C2=O)C(=O)N1 (some centres unmarked) [B19]
- Degradation rate (%) of ERα in MCF-7 cells (ERα [1]; 1nM compound): 26%
- Degradation rate (%) of ERα in MCF-7 cells (ERα [1]; 10nM compound): 72%
- IC50 (MCF-7 cells): 4170 nM
- Degradation rate (%) of ERα in T-47D cells (ERα [2]; 1nM compound): 55%
- Degradation rate (%) of ERα in T-47D cells (ERα [2]; 10nM compound): 73%

SMILES: O=C1CCC(N2Cc3c(ccc4c3OCC43CCN(C(=O)CN4CCN(c5ccc([C@@H]6c7ccc(O)cc7CC[C@@H]6c6ccccc6)cc5)CC4)CC3)C2=O)C(=O)N1 (some centres unmarked) [H14]
- Degradation rate (%) of ERα in MCF-7 cells (ERα [1]; 1nM compound): 8%
- Degradation rate (%) of ERα in MCF-7 cells (ERα [1]; 10nM compound): -13%
- IC50 (MCF-7 cells): > 100000 nM
- Degradation rate (%) of ERα in T-47D cells (ERα [2]; 1nM compound): 31%
- Degradation rate (%) of ERα in T-47D cells (ERα [2]; 10nM compound): 27%

SMILES: O=C1CCC(N2Cc3c(ccc4c3OCC43CCN(CC(=O)N4CCC(C#Cc5ccc([C@@H]6c7ccc(O)cc7CC[C@@H]6c6ccccc6)cc5)CC4)CC3)C2=O)C(=O)N1 (some centres unmarked) [A79]
- Degradation rate (%) of ERα in MCF-7 cells (ERα [1]; 1nM compound): 45%
- Degradation rate (%) of ERα in MCF-7 cells (ERα [1]; 10nM compound): 47%
- IC50 (MCF-7 cells): 2.59 nM
- Degradation rate (%) of ERα in T-47D cells (ERα [2]; 1nM compound): 40%
- Degradation rate (%) of ERα in T-47D cells (ERα [2]; 10nM compound): 60%

SMILES: O=C1CCC(N2Cc3c(ccc4c3OCC43CCN(CC(=O)NC4CC5(CCN(c6ccc([C@@H]7c8ccc(O)cc8CC[C@@H]7c7ccccc7)cc6)CC5)C4)CC3)C2=O)C(=O)N1 (some centres unmarked) [H46]
- Degradation rate (%) of ERα in MCF-7 cells (ERα [1]; 1nM compound): 53%
- Degradation rate (%) of ERα in MCF-7 cells (ERα [1]; 10nM compound): 77%
- IC50 (MCF-7 cells): 140 nM
- Degradation rate (%) of ERα in T-47D cells (ERα [2]; 1nM compound): 50%
- Degradation rate (%) of ERα in T-47D cells (ERα [2]; 10nM compound): 81%

SMILES: O=C1CCC(N2Cc3c(ccc4c3OCC43CCN(C4CCN(S(=O)(=O)C5CCN(c6ccc([C@@H]7c8ccc(O)cc8CC[C@@H]7c7ccccc7)cc6)CC5)CC4)CC3)C2=O)C(=O)N1 (some centres unmarked) [A122]
- Degradation rate (%) of ERα in MCF-7 cells (ERα [1]; 1nM compound): 40%
- Degradation rate (%) of ERα in MCF-7 cells (ERα [1]; 10nM compound): 51%
- IC50 (MCF-7 cells): 14800 nM
- Degradation rate (%) of ERα in T-47D cells (ERα [2]; 1nM compound): 56%
- Degradation rate (%) of ERα in T-47D cells (ERα [2]; 10nM compound): 65%

SMILES: C[C@@H]1Cc2c([nH]c3ccccc23)[C@@H](c2c(F)cc(N3CCC(C(=O)N4CCC(N5CCC6(CC5)COc5c6ccc6c5CN(C5CCC(=O)NC5=O)C6=O)[C@H](F)C4)CC3)cc2F)N1CC(F)F (some centres unmarked) [D9]
- Degradation rate (%) of ERα in MCF-7 cells (ERα [1]; 1nM compound): 22%
- Degradation rate (%) of ERα in MCF-7 cells (ERα [1]; 10nM compound): 55%
- IC50 (MCF-7 cells): 10.8 nM
- Degradation rate (%) of ERα in T-47D cells (ERα [2]; 1nM compound): 52%
- Degradation rate (%) of ERα in T-47D cells (ERα [2]; 10nM compound): 82%
